# Measured values published in patent US7964633B2, “Sulfonamide derivatives” (Hoffmann-La Roche Inc., priority 2006, dated 2011).
# pIC50: −log10 of the molar value.
# Experiments:
# human liver FBPase = molecular target: T1, human liver FBPase (Homo sapiens, UniProt P09467); test: FBPase assay (malachite green phosphate release); format: biochemical; conditions: recombinant human liver FBPase, 50 μM fructose-1,6-bisphosphate, pH 7.2, 50 minutes at room temperature
# T1 construct: host or cells: E. coli
# T1 sequence (P09467 2-338 limits assumed): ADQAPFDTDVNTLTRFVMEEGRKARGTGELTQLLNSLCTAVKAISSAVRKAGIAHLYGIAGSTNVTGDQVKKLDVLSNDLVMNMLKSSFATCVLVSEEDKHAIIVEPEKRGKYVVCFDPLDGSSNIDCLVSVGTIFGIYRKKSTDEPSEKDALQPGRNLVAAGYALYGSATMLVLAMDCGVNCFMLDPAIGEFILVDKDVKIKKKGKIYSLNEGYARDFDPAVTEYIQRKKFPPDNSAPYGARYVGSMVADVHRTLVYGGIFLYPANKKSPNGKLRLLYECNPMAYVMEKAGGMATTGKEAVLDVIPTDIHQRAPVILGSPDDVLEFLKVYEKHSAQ
# Procedure: The following tests were carried out for evaluating the inhibitory activity of the compounds of the present invention against human liver FBPase (Swissprot Data base reference PO9467, entry F16P_HUMAN).
# Enzyme preparation: Human liver FBPase cDNA (NM_000507) was purchased from Origene Technologies, Inc, subcloned in a vector for expression in E. Coli., and sequenced. Recombinant human liver FBPase (hIFBPase) was purified according to the following protocol that uses heat denaturation similarly to that described by El-Maghrabi et. al. [El-Maghrabi, M. R. et al. “Isolation of a human liver fructose-1,6-bisphosphatase cDNA and expression of the protein in Escherichia coli.” J Biol Chem 268:9466-9472, 1993.]. […] Purity of the enzyme preparation was >90% as assessed by Mass spectrometry.
# In vitro activity: Recombinant human liver FBPase (hIFBPase) activity was assayed through measuring the inorganic phosphate release that results from the hydrolysis of Fructose-1,6-bisphosphate by the enzyme. […] Anal. Biochem., 171:266-270, 1988], inorganic phosphate can be readily quantified by spectrophotometry at 620 nm after complexation with ammonium molybdate/malachite green reagent. […] Under these conditions, the assay was linear with time and able to detect FBPase inhibition after spectrophotometric read-out at 620 nm.
smiles,measurement,setting,value
"Cc1cccc(S(=O)(=O)NC(=O)NCCCCCCNC(=O)NS(=O)(=O)c2cccc(C)c2)c1 [Example 8, N,N′-[hexane-1,6-diylbis(iminocarbonyl)]bis(3-methylbenzenesulfonamide)]",pIC50,human liver FBPase,7.66
"O=C(NCCSSCCNC(=O)NS(=O)(=O)c1cccc(Cl)c1)NS(=O)(=O)c1cccc(Cl)c1 [Example 3, N,N′-[dithiobis(ethane-2,1-diyliminocarbonyl)]bis(3-chlorobenzenesulfonamide)]",melting point,,165 to 167 °C
O=C(NCCCCCCNC(=O)NS(=O)(=O)c1cccc(Cl)c1)NS(=O)(=O)c1cccc(Cl)c1 [Example 1],pIC50,human liver FBPase,7.77
